Test results: PubChem BioAssay AID2060616 (Molecular Pharmacology Branch, DTP, NCI, 2025)
Where “and” joins values, the source holds several entries; their conditions need not be identical. Equal values may be shown once.

Test system: 377384-186-R-J1-PDC complex spheroid viability
Experiment: Anticancer human tumor 377384-186-R-J1-PDC patient-derived pancreatic carcinoma cell line growth inhibition [CLK]
Conditions: for viability, T/C: stronger effect = lower value; active = viability on the fitted dose curve at most 10% of control; inactive = the rest
Outline: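 Patient-derived tumor cells grown as complex spheroids with HUVEC endothelial cells and mesenchymal stem cells, treated with drug combinations. Concentrations descend in half-log steps from near clinical Cmax, or from 10 microM if Cmax unknown.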
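Also: spheroids exposed to agents for 7 days before reading.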
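For viability, T/C in this document: luminescence signal used as a stand-in for viable cells.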

O=C(c1cc(Cc2n[nH]c(=O)c3ccccc23)ccc1F)N1CCN(C(=O)C2CC2)CC1 + CN1CCN(c2cc(C(=O)Nc3cc4cc(-c5cnn(C)c5)ccc4cn3)ccn2)CC1
> 10 µM: IC50 (curve of first compound, second compound 0.0316 µM)
6.68 µM: IC50 (curve of first compound, second compound 0.1 µM)
active: viability, T/C (second compound 1 µM, first compound 0.0316 µM) 1.23% | viability, T/C (second compound 1 µM, first compound 0.1 µM) 1.25% | viability, T/C (second compound 1 µM, first compound 0.316 µM) 1.1% | viability, T/C (second compound 1 µM, first compound 1 µM) 1.53% | viability, T/C (second compound 1 µM, first compound 3.16 µM) 1.47% | viability, T/C (second compound 1 µM, first compound 10 µM) 0.93% | viability, T/C (second compound 3.16 µM, first compound 0.0316 µM) 0.4% | viability, T/C (second compound 3.16 µM, first compound 0.1 µM) 0.39% | viability, T/C (second compound 3.16 µM, first compound 0.316 µM) 0.42% | viability, T/C (second compound 3.16 µM, first compound 1 µM) 0.45% | viability, T/C (second compound 3.16 µM, first compound 3.16 µM) 0.37% | viability, T/C (second compound 3.16 µM, first compound 10 µM) 1.27% | viability, T/C (second compound 10 µM, first compound 0.0316 µM) 0.42% | viability, T/C (second compound 10 µM, first compound 0.1 µM) 1.09% | viability, T/C (second compound 10 µM, first compound 0.316 µM) 1.28% | viability, T/C (second compound 10 µM, first compound 1 µM) 0.44% | viability, T/C (second compound 10 µM, first compound 3.16 µM) 0.49% | viability, T/C (second compound 10 µM, first compound 10 µM) 0.38%
< 0.0316 µM: IC50 (curve of first compound, second compound 0.316 µM) | IC50 (curve of first compound, second compound 1 µM) | IC50 (curve of first compound, second compound 3.16 µM) | IC50 (curve of first compound, second compound 10 µM)
inactive: viability, T/C (second compound 0.0316 µM, first compound 0.0316 µM) 87.8% | viability, T/C (second compound 0.0316 µM, first compound 0.1 µM) 85.3% | viability, T/C (second compound 0.0316 µM, first compound 0.316 µM) 81% | viability, T/C (second compound 0.0316 µM, first compound 1 µM) 77.7% | viability, T/C (second compound 0.0316 µM, first compound 3.16 µM) 65.1% | viability, T/C (second compound 0.0316 µM, first compound 10 µM) 52.7% | viability, T/C (second compound 0.1 µM, first compound 0.0316 µM) 83.9% | viability, T/C (second compound 0.1 µM, first compound 0.1 µM) 89.8% | viability, T/C (second compound 0.1 µM, first compound 0.316 µM) 77% | viability, T/C (second compound 0.1 µM, first compound 1 µM) 78.5% | viability, T/C (second compound 0.1 µM, first compound 3.16 µM) 63.3% | viability, T/C (second compound 0.1 µM, first compound 10 µM) 42.6% | viability, T/C (second compound 0.316 µM, first compound 0.0316 µM) 24% | viability, T/C (second compound 0.316 µM, first compound 0.1 µM) 32.5% | viability, T/C (second compound 0.316 µM, first compound 0.316 µM) 27.3% | viability, T/C (second compound 0.316 µM, first compound 1 µM) 27.1% | viability, T/C (second compound 0.316 µM, first compound 3.16 µM) 24.1% | viability, T/C (second compound 0.316 µM, first compound 10 µM) 22.7%

O=C(c1cc(Cc2n[nH]c(=O)c3ccccc23)ccc1F)N1CCN(C(=O)C2CC2)CC1
7.1 µM and 3.22 µM: IC50 (curve of compound)
inactive: viability, T/C (compound 0.0316 µM) 75.9% and 81.2% | viability, T/C (compound 0.1 µM) 78.6% and 74% | viability, T/C (compound 0.316 µM) 73.8% and 82.2% | viability, T/C (compound 1 µM) 74.3% and 63.9% | viability, T/C (compound 3.16 µM) 65.9% and 51.8% | viability, T/C (compound 10 µM) 43.2% and 39%
